Key:
[1] = test system: HIV-IIIb; assay: Antiviral assay in MT-4 cells infected with HIV-IIIb; assay type: cell-based; settings: MT4, 120 h; MT-4 cells, HIV-IIIb, 5 days; read-out: EC50 Range MT-4
Description: See: Wolfe, etal J. Virol.
Antiviral Assays in MT2 and MT4 Cells
For the antiviral assay utilizing MT-2 cells, 50 μl of 2× test concentration of 5-fold serially diluted compound in culture medium with 10% FBS was added to each well of a 96-well plate (9 concentrations) in triplicate. MT-2 cells were infected with HIV-IIIb at a multiplicity of infection (m.o.i) of 0.01 for 3 hours. Fifty microliters of infected cell suspension in culture medium with 10% FBS (˜1.5×10^4 cells) was then added to each well containing 50 μl of diluted compound. The plates were then incubated at 37° C. for 5 days. For the antiviral assay utilizing MT-4 cells, 20 μl of 2× test concentration of 5-fold serially diluted compound in culture medium with 10% FBS was added to each well of a 384-well plate (7 concentrations) in triplicate. MT-4 cells were next mixed with HIV-IIIb at an m.o.i. of 0.1 and 20 μl of virus/cell mixture (˜2000 cells) was immediately added to each well containing 20 μl of diluted compound. The plates were then incubated at 37° C. for 5 days. After 5 days of incubation, 100 μl of CellTiter-Glo™ Reagent (catalog # G7571, Promega Biosciences, Inc., Madison, Wis.) was added to each well containing MT-2 cells and 40 μl to each well containing MT-4 cells. Cell lysis was carried out by incubating at room temperature for 10 min and then chemiluminescence was read.

[2] = target: HIV integrase (Human immunodeficiency virus type 1 group M subtype B, UniProt P04585); assay: biochemical
Description: Representative compounds of the invention were tested for biological activity by methods including anti-HIV assay, measuring inhibition of HIV-integrase strand transfer catalysis, and cytotoxicity.
HIV Integrase Assay (IC50 Determination)
The HIV Integrase assay is carried out in Reacti-Bind High Binding Capacity Streptavidin coated plates (Pierce # 15502) in 100 μl reactions. The wells of the plate are rinsed once with PBS. Each well is then coated at room temperature for 1 h with 100 μl of 0.14 μM Donor DNA with the following sequence:
After coating, the plate was washed twice with PBS. 3′processing of the Donor DNA is started by adding 80 μl of Integrase/buffer mixture (25 mM HEPES, pH 7.3, 12.5 mM DTT, 93.75 mM NaCl, 12.5 mM MgCl2, 1.25% Glycerol, 0.3125 uM integrase) to each well. 3′processing is allowed to proceed for 30 min at 37° C., after which, 10 μl of test compound and 10 μl of 2.5 uM DIG-labeled Target DNA with the following sequence:
are added to each well to allow strand transfer to proceed for 30 min at 37° C. The plate is then washed three times with 2×SSC for 5 min and rinsed once with PBS. For detection of integrated product, 100 μl of a 1/2000 dilution of HRP-conjugated anti-DIG antibody (Pierce #31468) are added to each well and incubated for 1 hour. The plate was then washed three times for 5 min each, with 0.05% Tween-20 in PBS. For signal development and amplification, 100 μl of SuperSignal ELISA Femto Substrate (Pierce #37075) are added to each well. Chemiluminescence (in relative light units) is read immediately at 425 nm in the SPECTRAmax GEMINI Microplate Spectrophotometer using the end point mode at 5 sec per well.
For IC50 determinations, eight concentrations of test compounds in a 1/2.2 dilution series are used.

Compound	EC50 [1] [µM]	IC50 [2] [µM]
CC(C)S(=O)(=O)N(C)c1c2c(c(O)c3ncccc13)C(=O)N(Cc1ccc(F)cc1)C2 [Compound 54, N-(7-(4-fluorobenzyl)-9-hydroxy-8-oxo-7,8-dihydro-6H-pyrrolo[3,4-g]quinolin-5-yl)-N-methylpropane-2-sulfonamide]	< 0.06	0.06 to 1
CN(c1c2c(c(O)c3ncccc13)C(=O)N(Cc1ccc(F)cc1C#N)C2)S(C)(=O)=O [Compound 100, N-(7-(2-cyano-4-fluorobenzyl)-9-hydroxy-8-oxo-7,8-dihydro-6H-pyrrolo[3,4-g]quinolin-5-yl)-N-methylmethanesulfonamide]	0.06 to 1	0.06 to 1
CN(C)S(=O)(=O)N(C)c1c2c(c(O)c3ncccc13)C(=O)N(Cc1ccc(F)cc1)C2 [Compound 38, N-(7-(4-fluorobenzyl)-9-hydroxy-8-oxo-7,8-dihydro-6H-pyrrolo[3,4-g]quinolin-5-yl)-N,N′,N′-trimethylsulfamide]	< 0.06	0.06 to 1
CN(c1c2c(c(O)c3ncccc13)C(=O)N(Cc1ccc(F)cc1)C2=O)S(C)(=O)=O [Compound 152, N-(7-(4-fluorobenzyl)-9-hydroxy-6,8-dioxo-7,8-dihydro-6H-pyrrolo[3,4-g]quinolin-5-yl)-N-methylmethanesulfonamide]	> 1	< 0.06
CCOC(=O)N(C)c1c2c(c(O)c3ncccc13)C(=O)N(Cc1ccc(F)cc1)C2C (centres unmarked) [Compound 114, ethyl 7-(4-fluorobenzyl)-9-hydroxy-6-methyl-8-oxo-7,8-dihydro-6H-pyrrolo[3,4-g]quinolin-5-yl(methyl)carbamate]	0.06 to 1	0.06 to 1
CNC(=O)c1cc(F)ccc1CN1Cc2c(c(O)c3ncccc3c2N(C)S(C)(=O)=O)C1=O [Compound 88]	< 0.06	0.06 to 1
CN(c1c2c(c(O)c3ncccc13)C(=O)N(Cc1ccc(F)c(Cl)c1F)C2)S(C)(=O)=O [Compound 199, N-(7-(3-chloro-2,4-difluorobenzyl)-9-hydroxy-8-oxo-7,8-dihydro-6H-pyrrolo[3,4-g]quinolin-5-yl)-N-methylmethanesulfonamide]	< 0.06	0.06 to 1
CN(c1c2c(c(O)c3ncccc13)C(=O)N(Cc1cc(Cl)cc(Cl)c1)C2)S(C)(=O)=O [Compound 193, N-(7-(3,5-dichlorobenzyl)-9-hydroxy-8-oxo-7,8-dihydro-6H-pyrrolo[3,4-g]quinolin-5-yl)-N-methylmethanesulfonamide]	< 0.06	0.06 to 1
COc1cc(F)ccc1CN1Cc2c(c(O)c3ncccc3c2N(C)S(C)(=O)=O)C1=O [Compound 210, N-(7-(4-fluoro-2-methoxybenzyl)-9-hydroxy-8-oxo-7,8-dihydro-6H-pyrrolo[3,4-g]quinolin-5-yl)-N-methylmethanesulfonamide]	< 0.06	0.06 to 1
CN(Cc1ccncc1)S(=O)(=O)N(C)c1c2c(c(O)c3ncccc13)C(=O)N(Cc1ccc(F)cc1)C2 [Compound 136, N-(7-(4-fluorobenzyl)-9-hydroxy-8-oxo-7,8-dihydro-6H-pyrrolo[3,4-g]quinolin-5-yl)-N-methyl-N′-methyl-N′-(pyridin-4-ylmethyl)sulfamide]	0.06 to 1	0.06 to 1
O=C1c2c(c(N3CCCS3(=O)=O)c3cccnc3c2O)CN1Cc1ccc(F)cc1 [Compound 52, N-(7-(4-fluorobenzyl)-9-hydroxy-8-oxo-7,8-dihydro-6H-pyrrolo[3,4-g]quinolin-5-yl)-N-2-dioxoisothiazolidine]	< 0.06	< 0.06
O=C1c2c(c(N3C(=O)CCC3=O)c3cccnc3c2O)CN1Cc1ccc(F)cc1 [Compound 226, 1-(7-(4-fluorobenzyl)-9-hydroxy-8-oxo-7,8-dihydro-6H-pyrrolo[3,4-g]quinolin-5-yl)pyrrolidine-2,5-dione]	< 0.06	< 0.06
CN(c1c2c(c(O)c3ncccc13)C(=O)N(Cc1cc(F)ccc1F)C2)S(C)(=O)=O [Compound 191, N-(7-(2,5-difluorobenzyl)-9-hydroxy-8-oxo-7,8-dihydro-6H-pyrrolo[3,4-g]quinolin-5-yl)-N-methylmethanesulfonamide]	< 0.06	0.06 to 1
CC(C)C(=O)N(C)c1c2c(c(O)c3ncccc13)C(=O)N(Cc1ccc(F)cc1)C2 [Compound 69, N-(7-(4-fluorobenzyl)-9-hydroxy-8-oxo-7,8-dihydro-6H-pyrrolo[3,4-g]quinolin-5-yl)-N-methylisobutyramide]	< 0.06	< 0.06
CN(c1c2c(c(OCOC(=O)OC3CCCC3)c3ncccc13)C(=O)N(Cc1ccc(F)cc1)C2)S(C)(=O)=O [Compound 30, (7-(4-fluorobenzyl)-5-(N-methylmethan-5-ylsulfonamido)-8-oxo-7,8-dihydro-6H-pyrrolo[3,4-g]quinolin-9-yloxy)methyl cyclopentyl carbonate]	0.06 to 1	> 1
CN(c1c2c(c(O)c3ncccc13)C(=O)N(Cc1ccc(F)cc1)C2(C)C)S(C)(=O)=O [Compound 71, N-(7-(4-fluorobenzyl)-9-hydroxy-6,6-dimethyl-8-oxo-7,8-dihydro-6H-pyrrolo[3,4-g]quinolin-5-yl)-N-methylmethanesulfonamide]	< 0.06	0.06 to 1
CN(c1c2c(c(O)c3ncccc13)C(=O)N(Cc1ccncc1)C2)S(C)(=O)=O [Compound 92, N-(9-hydroxy-8-oxo-7-(pyridin-4-ylmethyl)-7,8-dihydro-6H-pyrrolo[3,4-g]quinolin-5-yl)-N-methylmethanesulfonamide]	> 1	> 1
CN(c1c2c(c(O)c3ncccc13)C(=O)N(Cc1c(F)ccc(Cl)c1F)C2)S(C)(=O)=O [Compound 185, N-(7-(3-chloro-2,6-difluorobenzyl)-9-hydroxy-8-oxo-7,8-dihydro-6H-pyrrolo[3,4-g]quinolin-5-yl)-N-methylmethanesulfonamide]	< 0.06	0.06 to 1
CN(c1c2c(c(O)c3ncccc13)C(=O)N(Cc1ccc(F)cc1)C2)S(=O)(=O)CC(F)(F)F [Compound 156, 2,2,2-trifluoro-N-(7-(4-fluorobenzyl)-9-hydroxy-8-oxo-7,8-dihydro-6H-pyrrolo[3,4-g]quinolin-5-yl)-N-methylethane-1-sulfonamide]	0.06 to 1	< 0.06
Cc1nc(C)c(S(=O)(=O)N(C)c2c3c(c(O)c4ncccc24)C(=O)N(Cc2ccc(F)cc2)C3)s1 [Compound 58, N-(7-(4-fluorobenzyl)-9-hydroxy-8-oxo-7,8-dihydro-6H-pyrrolo[3,4-g]quinolin-5-yl)-N,2,4-trimethylthiazole-5-sulfonamide]	< 0.06	0.06 to 1
CN(c1c2c(c(O)c3ncccc13)C(=O)N(Cc1ccc(Cl)cc1)C2)S(C)(=O)=O [Compound 183, N-(7-(4-chlorobenzyl)-9-hydroxy-8-oxo-7,8-dihydro-6H-pyrrolo[3,4-g]quinolin-5-yl)-N-methylmethanesulfonamide]	< 0.06	0.06 to 1
CN(c1c2c(c(O)c3ncccc13)C(=O)N(Cc1ccc(F)cc1)C2)S(=O)(=O)CCN1CCCCC1 [Compound 162, N-(7-(4-fluorobenzyl)-9-hydroxy-8-oxo-7,8-dihydro-6H-pyrrolo[3,4-g]quinolin-5-yl)-N-methyl-2-(piperidin-1-yl)ethanesulfonamide]	0.06 to 1	0.06 to 1

From US20070072831A1, “Integrase inhibitor compounds” (GILEAD SCIENCES, INC., priority 2005, published 2007)
